Experimental data published in US7893299B2, “Interleukin-1 and tumor necrosis factor-αmodulators; syntheses of such modulators and methods of using such modulators” (Nereus Pharmaceuticals, Inc., priority 2005, dated 2011).
Read-outs that look alike come from different tables or passages of the source.

Tests used:
HPBMC = HPBMC cell viability, Resazurin; type: cell-based, Human; details: HPBMC, 24 hr drug exposure, read-out: EC50 Inhibition of cell growth
Procedure: (§1) Eighty μl of 3.1×10^5/ml Human Peripheral Blood Mononuclear cells (HPBMC) were seeded in Costar 3904 96-well plate in LGM-3 medium and cultured for 12 hr at 37° C., 5% CO2 and 95% humidified air. 10 μl of 8-point half-log serial dilutions of LT-1-85, CC-3-19, CC-3-13P, formula (IIB-A1) and CC-3-22 prepared in LGM-3 medium was added to the cells and incubated for 1 hr. Subsequently, 10 μl of 500 ng/ml lipopolysaccharide (LPS) diluted in LGM-3 medium from 1 mg/ml stock solution was added to the cells and incubation proceeded for another 4 hr at 37° C., 5% CO2 and 95% humidified air. SB203580, a known p38 MAP kinase inhibitor and DMSO were used as positive and negative controls, respectively. After 4 hr stimulation with LPS, the level of TNF-α from each sample was analyzed by using the human TNF-α cytoset ELISA kit. EC50 values (the drug concentration at which 50% of the maximal observed TNF-α production is inhibited) were determined using a standard sigmoidal dose response curve fitting algorithm (Prism 2.0, GraphPad Software Inc). A duplicate set of cell plates were assayed for cell viability using the Resazurin dye after the cells were incubated with test compounds for 24 hr. The fluorescence of the reduction product of Resazurin was measured using a Fusion microplate fluorometer (Packard Bioscience) with λex=535 nm and λem=590 nm filters. EC50 values (the drug concentration at which 50% of the maximal observed growth inhibition is established) were determined using a standard sigmoidal dose response curve fitting algorithm (Prism 2.0, GraphPad Software Inc).

RPMI 8226 cells = test: cell growth inhibition, RPMI 8226, Resazurin, 1% FBS; type: cell-based, Human; details: 48 hr of drug exposure
Procedure: (§2) Human prostate adenocarcinoma (PC-3; CRL-1435), multiple myeloma (RPMI 8226; CCL-155) and embryonic kidney (HEK-293; CRL-1573) cells were all purchased from ATCC and maintained in appropriate culture media. The cells were cultured in an incubator at 37° C. in 5% CO2 and 95% humidified air.
(§3) For cell growth inhibition assays, PC-3 and HEK-293 cells were seeded at 5×10^3 and 1.5×10^3 cells/well respectively in 90 μl media containing 1% (v/v) FBS into 96 well (Corning; 3904) black-walled, clear-bottom tissue culture plates and the plates were incubated overnight to allow cells to establish and enter log phase growth. RPMI 8226 cells were seeded at 2×10^4 cells/well respectively in 90 μl media containing 1% (v/v) FBS into 96 well plates on the day of the assay. 4 mg/ml stock solutions of the compounds were prepared in 100% DMSO and stored at −20° C. The compounds were serially diluted and added in triplicate to the test wells. LT-1-85 was tested at concentrations ranging from 27 μM to 8.6 nM. Concentrations ranging from 30 μM to 9.7 nM were tested for CC-3-13P. Formula (IIB-A1) was tested at concentrations ranging from 26 μM to 8.4 nM. The plates were returned to the incubator for 48 hours. The final concentration of DMSO was 0.25% in all samples.
(§4) Following 48 hours of drug exposure, 10 μl of 0.2 mg/ml Resazurin in Mg2+, Ca2+ free phosphate buffered saline was added to each well and the plates were returned to the incubator for 3-6 hours. Since living cells metabolize Resazurin, the fluorescence of the reduction product of Resazurin was measured using a Fusion microplate fluorometer (Packard Bioscience) with λex=535 nm and λem=590 nm filters. Resazurin dye in medium without cells was used to determine the background, which was subtracted from the data for all experimental wells. […] Where the maximum inhibition of cell growth was less than 50%, an EC50 value was not determined. The data in Table 25 summarize the growth inhibitory effects of LT-1-85, CC-3-13P and formula (IIB-A1) against HEK-293, PC-3 and RPMI 8226 cells. The EC50 values indicate that LT-1-85 and CC-3-13P are cytotoxic against HEK-293, PC-3 and RPMI 8226 cells. Formula (IIB-A1) is cytotoxic against RPMI 8226 cells.

[1] = tested on: TNF-α production in HPBMC; test: TNF-α levels in LPS-stimulated Human Peripheral Blood Mononuclear cells (ELISA); type: cell-based; details: 5 hr drug exposure, read-out: EC50 Inhibition of TNF-α production
Procedure: as §1

PC-3 cells = test: cell growth inhibition, PC-3, Resazurin, 1% FBS; type: cell-based, Human; details: 48 hr of drug exposure
Procedure: as §2, §3, §4

THP-1 cells = test: resazurin viability assay in THP-1 cells; type: cell-based, human; details: * mild, ** marked reduction in viability, in % (unit assumed)
Procedure: (§5) The ability to inhibit TNF-α production was analyzed in THP-1 cells, a human acute monocytic leukemia cell line that is widely used to assess monocyte functions. In order to induce maturation, THP-1 cells were plated at 1×10^6 cells/ml and pretreated with 5 nM PMA for two days. Differentiated THP-1 cells were pretreated with various concentrations of TTL3 or its analogs for 1 hour, followed by a 4 hour incubation with 1 μg of LPS (Sigma, St. Louse, Mo.). The p38 inhibitor (SB 203580; Sigma, St. Louis, Mo.) was used as a positive control. Supernatants were collected and stored at −80° C. until assayed for TNF-α activity. A resazurin assay was performed for each analog to evaluate the effects on cell metabolism and viability.
A preparation of the dye resazurin, commercially-available as alamarBlue™ (Biosource International Inc., 820 Flynn Road, Camarillo, Calif.), was used for the cytotoxicity assays described herein. The assays and experiments described herein were conducted in substantially the same manner as described in the scientific literature, for example, in Magnani, E. and Bettini, E., “Resazurin detection of energy metabolism changes in serum-starved PC12 cells and of neuroprotective agent effect,” Brain Res Protoc., 2000 July; 5(3):266-72 and in Nociari M. M., Shalev A., Benias P., and Russo C. J, “A novel one-step, highly sensitive fluorometric assay to evaluate cell-mediated cytotoxicity,” Immunol. Methods 213, 157-167 (1998), see also U.S. Pat. No. 5,501,959, entitled “Antibiotic and Cytotoxic Drug Susceptibility Assays using Resazurin and Poising Agents,” the entire specification of which is incorporated herein by reference.

[2] = tested on: TNF-α production in THP-1 cells; test: LPS-induced TNF-α production in differentiated THP-1 cells (FLISA); type: cell-based; details: Homo sapiens, read-out: Percent TNF-α Inhibition
Procedure: as §5
To detect the presence of human TNFα, fluorescent linked immunosorbent assay or FLISA was developed and optimized. 100 μl of beads (6 μm, Spherotech) coated with goat anti-mouse IgG (1 mg/ml, R and D Systems) were mixed with 4 μl of biotin-anti-hTNFα mouse IgG (0.1 mg/ml, R and D Systems) and 2 μl of FMAT Blue-streptavidin (0.1 mg/ml, Applied Biosystems). 50 μl of the mixtures was combined with 50 μl of the supernatant isolated from treated THP-1 cells and added to the black wall FLISA plates (Applied Biosystems) and incubated overnight. The plates were scanned at factory set PMT setting, and the values were plotted and analyzed by Applied Biosystems software.

HT-29 (Colon) = test: 48 hr cytotoxicity, HT-29; type: cell-based, human; details: Homo sapiens, HT-29, 48 h
Procedure: (§6) Human colon adenocarcinoma HT-29 (ATCC# HTB-38), prostate adenocarcinoma PC-3 (ATCC# CRL-1435), breast adenocarcinoma MDA-MB231 (ATCC# HTB-26), Multiple Myeloma RPMI 8226 (ATCC# CCL-155) and U266 (ATCC # TIB-196) cell lines and human normal fibroblast CCD-27sk (ATCC# CRL-1475) were all purchased from ATCC (Manassas, Va.). The cells were maintained in their respective ATCC recommended culture media at 37° C., 5% CO2 and 95% humidified air.
(§7) The cytotoxicity assays were performed by seeding individual cell lines at appropriate density in the 96 well flat-bottomed plates and allowed to attach for 24 hours at 37° C., 5% CO2 and 95% humidified air (RPMI 8226 and U266 cells were plated in 96 well plates on the day of compound addition). Serially diluted NPI-1387 was added in triplicate to cells at concentrations ranging from 160 nM to 20 μM. Final concentration of 0.25% (v/v) DMSO was used as the vehicle control. Cell viability was assessed 48 hours later by measuring the fluorescence of the reduction product of Resazurin by a Fusion microplate fluorometer (PerkinElmer) with λex=535 nm and λem=590 nm filters. The IC50 values (the drug concentration at which 50% of the maximal observed cytotoxicity is established) were calculated in XLFit 3.0 or XLFit 4.0 (ID Business Solutions Ltd) using a sigmoidal dose response model.

U266 (MM) = test: 48 hr cytotoxicity, U266; type: cell-based, human; details: Homo sapiens, U-266, 48 h
Procedure: (§8) B16-F10 (ATCC; CRL-6475), DU 145 (ATCC; HTB-81), HEK293 (ATCC; CRL-1573), HT-29 (ATCC; HTB-38), LoVo (ATCC; CCL-229), MDA-MB-231 (ATCC; HTB-26), MIA PaCa-2 (ATCC; CRL-1420), NCI-H292 (ATCC; CRL-1848), OVCAR-3 (ATCC, HTB-161), PANC-1 (ATCC; CRL-1469), PC-3 (ATCC; CRL-1435), RPMI 8226 (ATCC; CCL-155) and U266 (ATCC; TIB-196) are maintained in appropriate culture media. The cells are cultured in an incubator at 37° C. in 5% CO2 and 95% humidified air.
(§9) For cell growth inhibition assays, B16-F10, DU 145, HEK293, HT-29, LoVo, MDA-MB-231, MIA PaCa-2, NCI-H292, OVCAR-3, PANC-1, PC-3, RPMI 8226 and U266 cells are seeded at 1.25×10^3, 5×10^3, 1.5×10^4, 5×10^3, 5×10^3, 1×10^4, 2×10^3, 4×10^3, 1×10^4, 7.5×10^3, 5×10^3, 2×10^4, 2.5×10^4 cells/well respectively in 90 μl complete media into Corning 3904 black-walled, clear-bottom tissue culture plates. 20 mM stock solutions of compounds of Formula II, IIA, and IIB are prepared in 100% DMSO, aliquoted and stored at −80° C. Compounds of Formula II, IIA, and IIB are serially diluted and added in triplicate to the test wells resulting in final concentrations ranging from of 20 μM to 0.2 pM. […]
(§10) Following 48 hours of drug exposure, 10 μl of 0.2 mg/ml resazurin (obtained from Sigma-Aldrich Chemical Co.) in Mg^2+, Ca^2+ free phosphate buffered saline is added to each well and the plates are returned to the incubator for 3-6 hours. Since living cells metabolize Resazurin, the fluorescence of the reduction product of Resazurin is measured using a Fusion microplate fluorometer (Packard Bioscience) with λex=535 nm and λem=590 nm filters. […]
(§11) The cytotoxicity assays were performed by seeding individual cell lines at appropriate density in the 96 well flat-bottomed plates and allowed to attach for 24 hours at 37° C., 5% CO2 and 95% humidified air (RPMI 8226 and U266 cells were plated in 96 well plates on the day of compound addition). […] Cell viability was assessed 48 hours later by measuring the fluorescence of the reduction product of Resazurin by a Fusion microplate fluorometer (PerkinElmer) with λex=535 nm and λem=590 nm filters. […]

RPMI 8226 (MM) = test: 48 hr cytotoxicity, RPMI 8226; type: cell-based, human; details: Homo sapiens, RPMI-8226, 48 h
Procedure: as §6, §7

MDA-MB-231 (Breast) = test: 48 hr cytotoxicity, MDA-MB-231; type: cell-based, human; details: Homo sapiens, MDA-MB-231, 48 h
Procedure: as §8, §9, §10, §11

PC3 (Prostate) = test: 48 hr cytotoxicity, PC-3; type: cell-based, human; details: Homo sapiens, 48 h
Procedure: as §8, §9, §10, §11

C=C[C@@]1(C)CCC=C2[C@H]1CC[C@@H]1[C@](C)(CNCCN)CCC[C@@]21C [CC-3-13P]
EC50 (HPBMC): 0.7 µM
EC50 (HPBMC; Homo sapiens, 24 h): 0.9 µM
EC50 (RPMI 8226 cells): 2.7 µM
EC50 (RPMI 8226 cells; Homo sapiens, RPMI-8226, 48 h): 2.3 µM
EC50 [1]: 0.4 µM
EC50 ([1]; Homo sapiens, PBMC, 5 h): 0.5 µM
EC50 (PC-3 cells): 4 µM
EC50 (PC-3 cells; Homo sapiens, PC-3, 48 h): 3.7 µM

C=C[C@@]1(C)CCC=C2[C@H]1CC[C@@H]1[C@](C)(C(=O)O)CCC[C@@]21C [TTL1]
Effect on Cell Viability (THP-1 cells; 100 ng/ml): 100
Effect on Cell Viability (THP-1 cells; 1 ug/ml): 100

C=C[C@@]1(C)CCC=C2[C@H]1CC[C@@H]1[C@](C)(COC(=O)CN3CCOCC3)CCC[C@@]21C [CC-3-22]
EC50 (HPBMC; Homo sapiens, 24 h): 24 µM
EC50 ([1]; Homo sapiens, PBMC, 5 h): 7.4 µM
Effect on Cell Viability (THP-1 cells; 100 ng/ml): 100
Effect on Cell Viability (THP-1 cells; 1 ug/ml): 100
Effect on Cell Viability (THP-1 cells; 10 ug/ml): 100
inhibition at 0.1 µg/mL ([2]; 100 ng/ml): 0%
inhibition at 1 µg/mL ([2]; 1 ug/ml): 0%
inhibition at 10 µg/mL ([2]; 10 ug/ml): 20%

C=C[C@@]1(C)CCC=C2[C@H]1CC[C@@H]1[C@](C)(CC(=O)CN3CCNCC3)CCC[C@@]21C [CC-3-19]
EC50 (HPBMC; Homo sapiens, 24 h): 3 µM
EC50 ([1]; Homo sapiens, PBMC, 5 h): 3.3 µM

C=CC(=O)[C@]1(C)CCC[C@@]2(C)C3CCC4C[C@@]3(CCC21)CC4=C (stereo partly shown) [NPI-1388]
IC50 (HT-29 (Colon)): 17 ± 4 µM
IC50 (U266 (MM)): 8.6 ± 6.4 µM
IC50 (RPMI 8226 (MM)): 4.1 ± 1.1 µM
IC50 (MDA-MB-231 (Breast)): 14 ± 5 µM
IC50 (PC3 (Prostate)): 10 ± 3 µM
